The subject of one experiment is IL-2. As to the kind of experiment: Cell-based cytokine inhibition assay (PBMCs, anti-CD3/anti-CD28 stimulated, MSD kit): IL-2. The conditions noted are these: PBMC, anti-CD3/anti-CD28 stimulation, 23 h with compound, relative to DMSO control. As for the experimental part:
(§1) Frozen primary blood mononuclear cells (PBMCs) were thawed and washed once with RPMI 1640 media supplemented with 10% fetal bovine serum, 1% penicillin, and 1% streptomycin. An anti-CD28 antibody at […] was added to the media as a co-stimulant. PBMCs were plated at 1×10^6 cells per well in a 96-well U bottom plate, which was pre-coated overnight with an anti-CD3 antibody at 1 μg/mL in PBS (100 μL/well). After the place was incubated for 1 h at 37° C. in a CO2 incubator, DMSO (control) or a compound was added. After the place was incubated for 23 h at 37° C. in a CO2 incubator, the cells were spun down at 1,500 rpm for 5 min. Supernatant media was collected for cytokine analysis using an MSD kit. Inhibitory activities of the compound were determined as a percentage of the DMSO control.

In another experiment the test system is TNFα. As to the kind of experiment: Cell-based cytokine inhibition assay (PBMCs, anti-CD3/anti-CD28 stimulated, MSD kit): TNFα. The conditions noted are these: PBMC, anti-CD3/anti-CD28 stimulation, 23 h with compound, relative to DMSO control. As for the experimental part:
as §1

The test system of another experiment is IL-10. As to the kind of experiment: Cell-based cytokine inhibition assay (PBMCs, anti-CD3/anti-CD28 stimulated, MSD kit): IL-10. The conditions noted are these: PBMC, anti-CD3/anti-CD28 stimulation, 23 h with compound, relative to DMSO control. Here is the method: as §1
For a further experiment, the system named is IFNγ. As to the kind of experiment: Cell-based cytokine inhibition assay (PBMCs, anti-CD3/anti-CD28 stimulated, MSD kit): IFNγ. Conditions: PBMC, anti-CD3/anti-CD28 stimulation, 23 h with compound, relative to DMSO control. Here is the method: as §1
Experiment [1] relates to PDE4D, in particular, PDE4D short isoform. As to the kind of experiment: Protein degradation assay in A549 cells (western blot): PDE4D. Type of experiment: cell-based. Conditions: 24 h, same conditions. As for the experimental part:
A549 cells were grown in RPMI 1640 media supplemented with 10% fetal bovine serum, streptomycin, and penicillin. The cells were plated in 6-well plates at 300,000 cells/well in the growth media. After overnight incubation, the cells were treated with DMSO (control) or a compound at predetermined concentrations (e.g., 10 nM, 100 nM, 1 μM, 3 μM, or 10 μM) for 24 h at 37° C. under 5% CO2. Whole cell extracts were prepared using an immunoprecipitation (IP) lysis buffer. The cells were washed once in PBS, and the cell pellets were resuspended in the IP lysis buffer and incubated for 15 min on ice. Cells debris was removed by centrifugation and the cleared whole cell lysates were transferred to new tubes for further analysis.
For a western blot analysis, the whole cell protein extracts were separated on 4-12% SDS-polyacrylamide gels, transferred to nitrocellulose, and probed with primary antibodies. Membranes were subsequently washed and probed with IRDYE® secondary antibodies. The signals were detected using an ODYSSEY® Imaging System. The antibodies used in the assay included anti-PDE4B antibody; anti-PDE4D antibodies (top, bottom, and short isoform); β-actin mouse monoclonal antibody; IRDYE® 680RD goat anti-rabbit antibody; and IRDYE® 800CW goat anti-mouse antibody.
(In general: In western blotting, separated proteins are transferred to a membrane and probed.)

As to `CCOc1cc([C@@H](CS(C)(=O)=O)N2C(=O)c3ccc(N4CCC(C5CCN(Cc6ccc(Oc7ccc8c(C9CCC(=O)NC9=O)nn(C)c8c7)cc6)CC5)CC4)cc3C2=O)ccc1OC` (stereo partly drawn) [Compound B001, 5-(1′-(4-((3-(2,6-dioxopiperidin-3-yl)-1-methyl-1H-indazol-6-yl)oxy)benzyl)-[4,4′-bipiperidin]-1-yl)-2-((S)-1-(3-ethoxy-4-methoxyphenyl)-2-(methylsulfonyl)ethyl)-isoindoline-1,3-dione], the IC50 (in general, the point on the concentration scale where inhibition reaches its midpoint) was 0.2 nM in the experiment on IL-2, 0.3 nM with TNFα, 0.3 nM in the experiment with IL-10 and 0.9 nM in the experiment on IFNγ.

Take `CCOc1cc([C@@H](CS(C)(=O)=O)N2C(=O)c3ccc(N4CCN(CC5CCN(Cc6ccc(Oc7ccc8c(C9CCC(=O)NC9=O)nn(C)c8c7)cc6)CC5)CC4)cc3C2=O)ccc1OC` (stereo partly drawn) [Compound B002, 5-(4-((1-(4-((3-(2,6-dioxopiperidin-3-yl)-1-methyl-1H-indazol-6-yl)oxy)benzyl)-piperidin-4-yl)methyl)piperazin-1-yl)-2-((S)-1-(3-ethoxy-4-methoxyphenyl)-2-(methylsulfonyl)-ethyl)isoindoline-1,3-dione]: the 50% inhibitory concentration (IC50) was found to be 0.09 nM with IL-2, 0.09 nM in the experiment on TNFα, 0.2 nM in the experiment with IL-10 and 0.3 nM with IFNγ.

On to `CCOc1cc([C@@H](CS(C)(=O)=O)N2C(=O)c3cccc(NC(C)=O)c3C2=O)ccc1OC` [apremilast], for which the “degradation of PDE4D (result in words)” value in experiment [1] was “did not degrade”.
